US20260042772A1, “FURO PYRIMIDINE DERIVATES” (Merck Patent GmbH, priority 2022, published 2026)
Read-outs that look alike come from different tables or passages of the source.

Experiments:
[1] = test system: CQC sensitive strain (NF54) of P. falciparum; test: In vitro antiplasmodial activity, Assay B (as described by Vennerstrom et al. 2004); format: cell-based; details: Plasmodium falciparum; NF54, Vennerstrom et al. method
Protocol: Compounds were screened against CQC sensitive strain (NF54) of P. falciparum in vitro as described by Vennerstrom et al. (2004). A full dose-response were performed starting at a concentration of 3000 nM, which is then serially diluted 2-fold in complete medium to give 10 concentrations; with the lowest concentration being approximately 6 nM. The same dilution techniques were used for all samples. References were tested at a starting concentration of 1000 ng/mL. The highest concentration of solvent to which the parasites were exposed has no measurable effect on the parasite viability (data not shown).

[2] = test system: chloroquine sensitive (CQS) strain (NF54) of P. falciparum; test: In vitro antiplasmodial activity, Assay A (parasite lactate dehydrogenase assay); format: cell-based
Protocol: Test samples were screened for in vitro antiplasmodial activity against a chloroquine sensitive (CQS) strain (NF54) of the malaria parasite P. falciparum. Continuous in vitro cultures of asexual erythrocyte stages of P. falciparum were maintained using a modified version of the method of Trager and Jensen (1976).1 Quantitative assessment of antiplasmodial activity in vitro was determined via the parasite lactate dehydrogenase assay using a modified method described by Makler (1993). The test samples were tested in triplicate on two separate occasions. Further dilutions were prepared in complete medium on the day of the experiment. Samples were tested as a suspension if not completely dissolved. Chloroquine and artesunate were used as the reference drugs. A full dose-response were performed starting at a concentration of 3000 nM, which is then serially diluted 2-fold in complete medium to give 10 concentrations; with the lowest concentration being approximately 6 nM. The same dilution techniques were used for all samples. References were tested at a starting concentration of 1000 ng/mL. The highest concentration of solvent to which the parasites were exposed has no measurable effect on the parasite viability (data not shown).

SMILES	IC50 [1]	IC50 ([2]; Plasmodium falciparum)	IC50 [2]
C[C@H]1COCCN1C(=O)c1ccc(-c2cc3ncnc(-c4ccnc(C(C)(C)O)c4)c3o2)cc1 [Compound D159, (S)-(4-(4-(2-(2-hydroxypropan-2-yl)pyridin-4-yl)furo[3,2-d]pyrimidin-6-yl)phenyl)(3-methylmorpholino) methanone]	< 15 nM	15 to 50 nM	
C[C@@H]1COCCN1C(=O)c1ccc(-c2cc3ncnc(-c4ccnc(C(C)(C)O)c4)c3o2)cc1 [Compound D160, (R)-(4-(4-(2-(2-hydroxypropan-2-yl)pyridin-4-yl)furo[3,2-d]pyrimidin-6-yl)phenyl)(3-methylmorpholino) methanone]	< 15 nM	15 to 50 nM	
CC1CN(C(=O)c2ccc(-c3cc4ncnc(-c5ccnc(C(C)(C)O)c5)c4o3)cc2)CC(C)O1 (centres unmarked) [Compound D161, (2,6-dimethylmorpholino)(4-(4-(2-(2-hydroxypropan-2-yl)pyridin-4-yl)furo[3,2-d]pyrimidin-6-yl)phenyl)methanone]	< 15 nM	< 15 nM	
CC1COCC(C)N1C(=O)c1ccc(-c2cc3ncnc(-c4ccnc(C(C)(C)O)c4)c3o2)cc1 (centres unmarked) [Compound D171, (3,5-dimethylmorpholino)(4-(4-(2-(2-hydroxypropan-2-yl)pyridin-4-yl)furo[3,2-d]pyrimidin-6-yl)phenyl)methanone]		> 50 nM	
CC(C)(O)c1cccc(-c2ncnc3cc(-c4ccc(C(=O)N5C[C@H]6C[C@@H]5CO6)cc4)oc23)c1 [Compound D172, ((1R,4R)-2-oxa-5-azabicyclo[2.2.1]heptan-5-yl)(4-(4-(3-(2-hydroxypropan-2-yl)phenyl)furo[3,2-d]pyrimidin-6-yl)phenyl)methanone]	< 15 nM	< 15 nM	
CC(C)(O)c1cc(F)cc(-c2ncnc3cc(-c4ccc(C(=O)N5C[C@H]6C[C@@H]5CO6)cc4)oc23)c1 [Compound D173, ((1R,4R)-2-oxa-5-azabicyclo[2.2.1]heptan-5-yl)(4-(4-(3-fluoro-5-(2-hydroxypropan-2-yl)phenyl)furo[3,2-d]pyrimidin-6-yl)phenyl)methanone]		< 15 nM	
CC(C)(O)c1cccc(-c2ncnc3cc(-c4ccc(C(=O)N5C[C@@H]6C[C@H]5CO6)cc4)oc23)c1 [Compound D174, ((1S,4S)-2-oxa-5-azabicyclo[2.2.1]heptan-5-yl)(4-(4-(3-(2-hydroxypropan-2-yl)phenyl)furo[3,2-d]pyrimidin-6-yl)phenyl)methanone]	< 15 nM	< 15 nM	
CC(C)(O)c1cc(F)cc(-c2ncnc3cc(-c4ccc(C(=O)N5C[C@@H]6C[C@H]5CO6)cc4)oc23)c1 [Compound D175, ((1S,4S)-2-oxa-5-azabicyclo[2.2.1]heptan-5-yl)(4-(4-(3-fluoro-5-(2-hydroxypropan-2-yl)phenyl)furo[3,2-d]pyrimidin-6-yl)phenyl)methanone]		< 15 nM	
CC(C)(O)c1cccc(-c2ncnc3cc(-c4ccc(C(=O)N5CCOCC5)cc4)oc23)c1 [Compound P13, (4-(4-(3-(2-hydroxypropan-2-yl)phenyl)furo[3,2-d]pyrimidin-6-yl)phenyl)(morpholino) methanone]		> 50 nM	
CC(C)(O)c1cccc(-c2ncnc3cc(-c4ccc(S(C)(=N)=O)cc4)oc23)c1F (centres unmarked) [Compound P28, (4-(4-(2-fluoro-3-(2-hydroxypropan-2-yl)phenyl)furo[3,2-d]pyrimidin-6-yl)phenyl)(imino)(methyl)-λ6-sulfanone]			< 15 nM
CC(C)(O)c1cc(-c2ncnc3cc(-c4ccc(C(=O)N5CCOCC5)cc4)oc23)ccc1F [Compound P32, (4-(4-(4-fluoro-3-(2-hydroxypropan-2-yl)phenyl)furo[3,2-d]pyrimidin-6-yl)phenyl)(morpholino) methanone]		> 50 nM	
CC(C)(O)c1cccc(-c2ncnc3cc(-c4ccc(S(N)(=O)=O)cc4)oc23)c1F [Compound P33, 4-(4-(2-fluoro-3-(2-hydroxypropan-2-yl)phenyl)furo[3,2-d]pyrimidin-6-yl)benzenesulfonamide]		15 to 50 nM	
